Assay results published in paper PMC3731299, “Isoniazid Inhibits the Heme-Based Reactivity of Mycobacterium tuberculosis Truncated Hemoglobin N” (PLoS ONE, 2013).
Read-outs that look alike come from different tables or passages of the source. Marks after values point to notes of the source that are not given here.

Legend:
Mt-trHbN(III) [1] = target: T1, Mt-trHbN(III) (Mycobacterium tuberculosis, UniProt P9WN25); format: biochemical
T1 construct: made in house

Sperm whale Mb(III) = conditions: pH 7.0, 25.0°C, cited from earlier work
Mt-trHbN(III) [2] = target: T1, Mt-trHbN(III); assay: biochemical; format: binding; conditions: pH 7
Mt-trHbN(III) [3] = target: T1, Mt-trHbN(III); assay: Peroxynitrite isomerization by Mt-trHbN(III) in the absence and presence of isoniazid; format: biochemical; conditions: [azide] >10×H
Method: Rapid-mixing experiments were performed using either the SX18.MV stopped-flow apparatus (Applied Photophysics, Salisbury, United Kingdom) or the SFM-20 stopped-flow apparatus (Bio-Logic SAS, Claix, France); the dead time was 1.0 ms.
Kinetics of peroxynitrite isomerization by Mt-trHbN(III) in the absence and presence of isoniazid was recorded spectrophotometrically at 302 nm (ε302 nm = 1.705×10^3 M^−1 cm^−1) [60]–[67] in the absence and presence of Mt-trHbN(III) (final concentration 2.5×10^−6 – 1.0×10^−5 M) and isoniazid (final concentration 3.0×10^−5 – 4.0×10^−4 M) by rapid mixing the Mt-trHbN(III) or buffer solution with the peroxynitrite solution (final concentration 2.5×10^−4 M).
Kinetics of peroxynitrite isomerization by Mt-trHbN(III) in the absence and presence of isoniazid was analyzed in the framework of the minimum reaction mechanism depicted by Scheme D [60]–[67]: [drawing 11] (D)
Values of the pseudo-first-order rate constant for Mt-trHbN(III)-mediated peroxynitrite isomerization (i.e., l ^obs) were determined in the absence and presence of isoniazid according to Equation 8 [60]–[67]: [drawing 12] (8)
Values of the second-order rate constant for Mt-trHbN(III)-mediated peroxynitrite isomerization (i.e., l on) and of the first-order rate constant for peroxynitrite isomerization in the absence of Mt-trHbN(III) (i.e., l 0) were determined from the linear dependence of l ^obs values on the Mt-trHbN(III) concentration according to Equation 9 [60]–[67]: [drawing 13] (9)
The value of K for isoniazid binding to Mt-trHbN(III) was determined from the dependence of l on the drug concentration (i.e., 3.0×10^−5 M ≤ [isoniazid] ≤4.0×10^−4 M) according to Equation 11 [60]–[67]: [drawing 15] (11) where l on ^app is the value of l on in the presence of isoniazid.

[4] = absence of Mt-trHbN(III), isoniazid and azide

In the case of [N-]=[N+]=[N-] [azide], the “average yield of NO2 –” value [4] is reported as 29%, the “average yield of NO3 –” value [4] is reported as 72% and the “NO2 –” value (pH 7) is reported as 27±6%. For the same compound, the “NO3 –” value (pH 7) was 74±5%, the “NO3 – + NO2 –” value (pH 7) was 101% and the “average yield of NO2 –” value (Mt-trHbN(III) [1]) was 26%. The “average yield of NO3 –” value (Mt-trHbN(III) [1]) was 74%, the “NO2 –” value (Mt-trHbN(III) [1]; pH 7) was 26±4% and the “NO3 –” value (Mt-trHbN(III) [1]; pH 7) was 73±7%. For the same compound, the “NO3 – + NO2 –” value (Mt-trHbN(III) [1]; pH 7) was 99%, the “h off for azide binding to sperm whale Mb(III)” value (Sperm whale Mb(III)) was “h off = 3.0×10^−1 s^−1 ^d” and the “h on for azide binding to sperm whale Mb(III)” value (Sperm whale Mb(III)) was “h on = 4.4×10^3 M^−1 s^−1 ^d”. The Kd (Sperm whale Mb(III); read-out: H for azide binding to sperm whale Mb(III)) was 50 µM, the “first-order dissociation rate constant h off” value (Mt-trHbN(III) [2]) was “h off = (7.1±0.8)×10^−1 s^−1” and the “second-order association rate constant h on” value (Mt-trHbN(III) [2]) was “h on = (9.6±1.1)×10^3 M^−1 s^−1”. The Kd (Mt-trHbN(III) [2]; read-out: H calculated from kinetic parameters (h off/h on)) was 74 µM, the Kd (Mt-trHbN(III) [2]; read-out: dissociation equilibrium constant H for azide binding to Mt-trHbN(III)) was 73 µM and the “Mt-trHbN(III) catalysis of peroxynitrite isomerization” value (Mt-trHbN(III) [3]) was “does not catalyze the isomerization of peroxynitrite”.
